#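 Exposure lasted 48 hours, with cells grown in 96-well plates and compounds tested at five concentrations. TGI denotes the concentration required for complete inhibition of growth.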
# What was measured:
# Test in all cases: NCI anticancer screen, dose series, 48 h
# HCT-15 colon = tested on: HCT-15 colon
# XF 498 CNS = tested on: XF 498 CNS
# SNB-19 CNS = tested on: SNB-19 CNS
# UO-31 renal = tested on: UO-31 renal
# SK-MEL-5 melanoma = tested on: SK-MEL-5 melanoma
# HOP-62 NSCLC = tested on: HOP-62 NSCLC
# DMS 114 small cell lung = tested on: DMS 114 small cell lung
# SK-OV-3 ovarian = tested on: SK-OV-3 ovarian
# HT29 colon = tested on: HT29 colon
# NCI-H460 lung = tested on: NCI-H460 lung
# OVCAR-4 ovarian = tested on: OVCAR-4 ovarian
# M19-MEL melanoma = tested on: M19-MEL melanoma
# COLO 205 colon = tested on: COLO 205 colon
# SNB-78 CNS = tested on: SNB-78 CNS
# 786-0 renal = tested on: 786-0 renal
# U251 CNS = tested on: U251 CNS
# DMS 273 small cell lung = tested on: DMS 273 small cell lung
# UACC-62 melanoma = tested on: UACC-62 melanoma
# SNB-75 CNS = tested on: SNB-75 CNS
# OVCAR-5 ovarian = tested on: OVCAR-5 ovarian
# HL-60(TB) leukemia = tested on: HL-60(TB) leukemia
# M14 melanoma = tested on: M14 melanoma
# OVCAR-3 ovarian = tested on: OVCAR-3 ovarian
# CAKI-1 renal = tested on: CAKI-1 renal
# A549 NSCLC = tested on: A549 NSCLC
# A498 renal = tested on: A498 renal
# CCRF-CEM leukemia = tested on: CCRF-CEM leukemia
# SF-268 CNS = tested on: SF-268 CNS
# ACHN renal = tested on: ACHN renal
# NCI-H522 lung = tested on: NCI-H522 lung
# SN12C renal = tested on: SN12C renal
# RPMI-8226 leukemia = tested on: RPMI-8226 leukemia
# SF-539 CNS = tested on: SF-539 CNS
# SK-MEL-2 melanoma = tested on: SK-MEL-2 melanoma
# KM12 colon = tested on: KM12 colon
# K-562 leukemia = tested on: K-562 leukemia
# MOLT-4 leukemia = tested on: MOLT-4 leukemia
# DLD-1 colon = tested on: DLD-1 colon
# HCC-2998 colon = tested on: HCC-2998 colon
# UACC-257 melanoma = tested on: UACC-257 melanoma
# OVCAR-8 ovarian = tested on: OVCAR-8 ovarian
# KM20L2 colon = tested on: KM20L2 colon
# MALME-3M melanoma = tested on: MALME-3M melanoma
# SK-MEL-28 melanoma = tested on: SK-MEL-28 melanoma
# NCI-H226 lung = tested on: NCI-H226 lung
# TK-10 renal = tested on: TK-10 renal
# IGROV1 ovarian = tested on: IGROV1 ovarian
# LXFL 529 NSCLC = tested on: LXFL 529 NSCLC
# HCT-116 colon = tested on: HCT-116 colon
# SF-295 CNS = tested on: SF-295 CNS
# HOP-18 NSCLC = tested on: HOP-18 NSCLC
# HOP-92 NSCLC = tested on: HOP-92 NSCLC
# EKVX NSCLC = tested on: EKVX NSCLC
# LOX IMVI melanoma = tested on: LOX IMVI melanoma
# SW-620 colon = tested on: SW-620 colon
# NCI-H23 lung = tested on: NCI-H23 lung
# SR leukemia = tested on: SR leukemia
# RXF 393 renal = tested on: RXF 393 renal
# RXF-631 renal = tested on: RXF-631 renal
smiles,measurement,setting,value
COc1ccc(N2C(=O)C3c4[nH]c5ccccc5c4C4CCCCCCC4C3C2=O)cc1 (stereo not given),TGI,HCT-15 colon,27 µM
same,TGI,XF 498 CNS,25.7 µM
same,TGI,SNB-19 CNS,28.1 µM
same,TGI,UO-31 renal,44.1 µM
same,TGI,SK-MEL-5 melanoma,61.9 µM
same,TGI,HOP-62 NSCLC,26 µM
same,TGI,DMS 114 small cell lung,28 µM
same,TGI,SK-OV-3 ovarian,33.2 µM
same,TGI,HT29 colon,> 100 µM
same,TGI,NCI-H460 lung,27.5 µM
same,TGI,OVCAR-4 ovarian,33.2 µM
same,TGI,M19-MEL melanoma,> 80.3 µM
same,TGI,COLO 205 colon,> 48.6 µM
same,TGI,SNB-78 CNS,> 100 µM
same,TGI,786-0 renal,8.29 µM
same,TGI,U251 CNS,16.5 µM
same,TGI,DMS 273 small cell lung,18.6 µM
same,TGI,UACC-62 melanoma,39.2 µM
same,TGI,SNB-75 CNS,27.8 µM
same,TGI,OVCAR-5 ovarian,> 100 µM
same,TGI,HL-60(TB) leukemia,74 µM
same,TGI,M14 melanoma,37.4 µM
same,TGI,OVCAR-3 ovarian,16.8 µM
same,TGI,CAKI-1 renal,39.5 µM
same,TGI,A549 NSCLC,22.8 µM
same,TGI,A498 renal,52.3 µM
same,TGI,CCRF-CEM leukemia,21.5 µM
same,TGI,SF-268 CNS,31.3 µM
same,TGI,ACHN renal,18.7 µM
same,TGI,NCI-H522 lung,36.5 µM
same,TGI,SN12C renal,14.9 µM
same,TGI,RPMI-8226 leukemia,> 100 µM
same,TGI,SF-539 CNS,21.5 µM
same,TGI,SK-MEL-2 melanoma,> 69.8 µM
same,TGI,KM12 colon,> 100 µM
same,TGI,K-562 leukemia,> 75.2 µM
same,TGI,MOLT-4 leukemia,37.9 µM
same,TGI,DLD-1 colon,> 43.4 µM
same,TGI,HCC-2998 colon,> 100 µM
same,TGI,UACC-257 melanoma,> 100 µM
same,TGI,OVCAR-8 ovarian,13 µM
same,TGI,KM20L2 colon,> 100 µM
same,TGI,MALME-3M melanoma,41.4 µM
same,TGI,SK-MEL-28 melanoma,42 µM
same,TGI,NCI-H226 lung,31.6 µM
same,TGI,TK-10 renal,40.4 µM
same,TGI,IGROV1 ovarian,59.1 µM
same,TGI,LXFL 529 NSCLC,17.1 µM
same,TGI,HCT-116 colon,15.3 µM
same,TGI,SF-295 CNS,26 µM
same,TGI,HOP-18 NSCLC,3.2 µM
same,TGI,HOP-92 NSCLC,33.4 µM
same,TGI,EKVX NSCLC,41.4 µM
same,TGI,LOX IMVI melanoma,20.8 µM
same,TGI,SW-620 colon,34.1 µM
same,TGI,NCI-H23 lung,31.2 µM
same,TGI,SR leukemia,> 21.3 µM
CCOC(=O)c1c(-c2ccccc2)c(C(OC(c2ccccc2)c2c(-c3ccccc3)c(C(=O)OCC)n3ccccc23)c2ccccc2)c2ccccn12 (stereo not given),TGI,HCT-15 colon,> 100 µM
same,TGI,XF 498 CNS,> 100 µM
same,TGI,SNB-19 CNS,> 100 µM
same,TGI,UO-31 renal,> 100 µM
same,TGI,HOP-62 NSCLC,> 100 µM
same,TGI,SK-OV-3 ovarian,> 100 µM
same,TGI,HT29 colon,> 100 µM
same,TGI,NCI-H460 lung,> 100 µM
same,TGI,OVCAR-4 ovarian,> 100 µM
same,TGI,COLO 205 colon,> 100 µM
same,TGI,SNB-78 CNS,> 100 µM
same,TGI,786-0 renal,> 100 µM
same,TGI,DMS 273 small cell lung,> 100 µM
same,TGI,UACC-62 melanoma,> 100 µM
same,TGI,SNB-75 CNS,> 100 µM
same,TGI,OVCAR-5 ovarian,> 100 µM
same,TGI,HL-60(TB) leukemia,> 100 µM
same,TGI,M14 melanoma,> 100 µM
same,TGI,OVCAR-3 ovarian,> 100 µM
same,TGI,CAKI-1 renal,> 100 µM
same,TGI,A549 NSCLC,> 100 µM
same,TGI,CCRF-CEM leukemia,> 100 µM
same,TGI,SF-268 CNS,> 100 µM
same,TGI,ACHN renal,> 100 µM
same,TGI,NCI-H522 lung,> 100 µM
same,TGI,SN12C renal,> 100 µM
same,TGI,RPMI-8226 leukemia,> 100 µM
same,TGI,SK-MEL-2 melanoma,> 100 µM
same,TGI,KM12 colon,> 100 µM
same,TGI,K-562 leukemia,> 100 µM
same,TGI,MOLT-4 leukemia,> 100 µM
same,TGI,DLD-1 colon,> 100 µM
same,TGI,HCC-2998 colon,> 100 µM
same,TGI,UACC-257 melanoma,> 100 µM
same,TGI,OVCAR-8 ovarian,> 100 µM
same,TGI,KM20L2 colon,> 100 µM
same,TGI,MALME-3M melanoma,> 100 µM
same,TGI,RXF 393 renal,> 100 µM
same,TGI,SK-MEL-28 melanoma,> 100 µM
same,TGI,NCI-H226 lung,> 100 µM
same,TGI,TK-10 renal,> 100 µM
same,TGI,IGROV1 ovarian,> 100 µM
same,TGI,LXFL 529 NSCLC,> 100 µM
same,TGI,HCT-116 colon,> 100 µM
same,TGI,SF-295 CNS,> 100 µM
same,TGI,HOP-18 NSCLC,> 100 µM
same,TGI,EKVX NSCLC,> 100 µM
same,TGI,LOX IMVI melanoma,> 100 µM
same,TGI,SW-620 colon,> 100 µM
same,TGI,NCI-H23 lung,> 100 µM
same,TGI,SR leukemia,> 100 µM
COC(=O)C1Cc2c([nH]c3ccccc23)C(c2ccccc2O)N1Cc1ccccc1 (stereo not given),TGI,HCT-15 colon,> 46.4 µM
same,TGI,SNB-19 CNS,> 31.6 µM
same,TGI,UO-31 renal,> 46.4 µM
same,TGI,SK-MEL-5 melanoma,> 46.4 µM
same,TGI,HOP-62 NSCLC,> 63.5 µM
same,TGI,DMS 114 small cell lung,> 31.6 µM
same,TGI,SK-OV-3 ovarian,40.1 µM
same,TGI,HT29 colon,> 46.4 µM
same,TGI,NCI-H460 lung,> 46.4 µM
same,TGI,OVCAR-4 ovarian,33.6 µM
same,TGI,M19-MEL melanoma,> 46.4 µM
same,TGI,COLO 205 colon,> 46.4 µM
same,TGI,SNB-78 CNS,> 46.4 µM
same,TGI,786-0 renal,31.2 µM
same,TGI,U251 CNS,39.5 µM
same,TGI,DMS 273 small cell lung,> 31.6 µM
same,TGI,UACC-62 melanoma,33.1 µM
same,TGI,SNB-75 CNS,18.8 µM
same,TGI,OVCAR-5 ovarian,> 46.4 µM
same,TGI,HL-60(TB) leukemia,> 46.4 µM
same,TGI,M14 melanoma,> 46.4 µM
same,TGI,OVCAR-3 ovarian,39.2 µM
same,TGI,CAKI-1 renal,34.5 µM
same,TGI,A549 NSCLC,> 46.4 µM
same,TGI,A498 renal,37.8 µM
same,TGI,CCRF-CEM leukemia,> 46.4 µM
same,TGI,SF-268 CNS,> 31.6 µM
same,TGI,ACHN renal,39.9 µM
same,TGI,NCI-H522 lung,> 31.6 µM
same,TGI,SN12C renal,> 46.4 µM
same,TGI,RPMI-8226 leukemia,> 100 µM
same,TGI,SF-539 CNS,65.2 µM
same,TGI,SK-MEL-2 melanoma,> 31.6 µM
same,TGI,RXF-631 renal,45.3 µM
same,TGI,KM12 colon,> 31.6 µM
same,TGI,K-562 leukemia,> 46.4 µM
same,TGI,MOLT-4 leukemia,> 46.4 µM
same,TGI,DLD-1 colon,> 100 µM
same,TGI,HCC-2998 colon,> 31.6 µM
same,TGI,UACC-257 melanoma,> 46.4 µM
same,TGI,OVCAR-8 ovarian,> 46.4 µM
same,TGI,KM20L2 colon,> 46.4 µM
same,TGI,MALME-3M melanoma,> 31.6 µM
same,TGI,RXF 393 renal,61.7 µM
same,TGI,SK-MEL-28 melanoma,> 31.6 µM
same,TGI,NCI-H226 lung,> 46.4 µM
same,TGI,TK-10 renal,> 46.4 µM
same,TGI,IGROV1 ovarian,33.3 µM
same,TGI,LXFL 529 NSCLC,43.9 µM
same,TGI,HCT-116 colon,> 31.6 µM
same,TGI,SF-295 CNS,42.6 µM
same,TGI,HOP-18 NSCLC,> 46.4 µM
same,TGI,HOP-92 NSCLC,43.5 µM
same,TGI,EKVX NSCLC,> 31.6 µM
same,TGI,LOX IMVI melanoma,> 46.4 µM
same,TGI,SW-620 colon,> 46.4 µM
same,TGI,NCI-H23 lung,> 46.4 µM
same,TGI,SR leukemia,> 31.6 µM
CCN(CC)CCCC(C)Nc1cc(-c2ccccc2)nc2cc(OC)ccc12 (stereo not given),TGI,UO-31 renal,9.22 µM
same,TGI,HOP-62 NSCLC,19.4 µM
same,TGI,DMS 114 small cell lung,21.8 µM
same,TGI,SK-OV-3 ovarian,37.5 µM
same,TGI,HT29 colon,4.83 µM
same,TGI,NCI-H460 lung,14.7 µM
same,TGI,OVCAR-4 ovarian,18.7 µM
same,TGI,M19-MEL melanoma,27.5 µM
same,TGI,COLO 205 colon,13.4 µM
same,TGI,SNB-78 CNS,18 µM
same,TGI,U251 CNS,15.8 µM
same,TGI,UACC-62 melanoma,36.6 µM
same,TGI,SNB-75 CNS,25.9 µM
same,TGI,OVCAR-5 ovarian,7.97 µM
same,TGI,HL-60(TB) leukemia,7.04 µM
same,TGI,M14 melanoma,3.52 µM
same,TGI,OVCAR-3 ovarian,34.5 µM
same,TGI,A498 renal,14 µM
same,TGI,CCRF-CEM leukemia,11.4 µM
same,TGI,SF-268 CNS,32.9 µM
same,TGI,ACHN renal,29.8 µM
same,TGI,NCI-H522 lung,19.9 µM
same,TGI,RPMI-8226 leukemia,5.77 µM
same,TGI,SF-539 CNS,17.7 µM
same,TGI,SK-MEL-2 melanoma,26.3 µM
same,TGI,KM12 colon,22.3 µM
same,TGI,K-562 leukemia,5.7 µM
same,TGI,MOLT-4 leukemia,8.24 µM
same,TGI,HCC-2998 colon,2.41 µM
same,TGI,UACC-257 melanoma,35.6 µM
same,TGI,KM20L2 colon,7.89 µM
same,TGI,MALME-3M melanoma,22.4 µM
same,TGI,SK-MEL-28 melanoma,20.5 µM
same,TGI,IGROV1 ovarian,41.9 µM
same,TGI,LXFL 529 NSCLC,19.9 µM
same,TGI,SF-295 CNS,21.1 µM
same,TGI,HOP-92 NSCLC,11.1 µM
same,TGI,NCI-H23 lung,32.1 µM
same,TGI,SR leukemia,12.1 µM

# From PubChem BioAssay (NCI)
